The record followed here is patent US20250064941A1, “SIGLEC LIGANDS, CONJUGATES, AND METHODS OF USE THEREOF” (Osprey Biopharmaceuticals, Inc., priority 2023, published 2025).

pKd: −log10 of the molar value.

Assay [1] concerns the target T1, mouse Siglec-2-Fc-Avi (CD22) (Mus musculus, UniProt P35329).
T1 construct: made in house
T1 sequence (P35329 22-708 limits assumed): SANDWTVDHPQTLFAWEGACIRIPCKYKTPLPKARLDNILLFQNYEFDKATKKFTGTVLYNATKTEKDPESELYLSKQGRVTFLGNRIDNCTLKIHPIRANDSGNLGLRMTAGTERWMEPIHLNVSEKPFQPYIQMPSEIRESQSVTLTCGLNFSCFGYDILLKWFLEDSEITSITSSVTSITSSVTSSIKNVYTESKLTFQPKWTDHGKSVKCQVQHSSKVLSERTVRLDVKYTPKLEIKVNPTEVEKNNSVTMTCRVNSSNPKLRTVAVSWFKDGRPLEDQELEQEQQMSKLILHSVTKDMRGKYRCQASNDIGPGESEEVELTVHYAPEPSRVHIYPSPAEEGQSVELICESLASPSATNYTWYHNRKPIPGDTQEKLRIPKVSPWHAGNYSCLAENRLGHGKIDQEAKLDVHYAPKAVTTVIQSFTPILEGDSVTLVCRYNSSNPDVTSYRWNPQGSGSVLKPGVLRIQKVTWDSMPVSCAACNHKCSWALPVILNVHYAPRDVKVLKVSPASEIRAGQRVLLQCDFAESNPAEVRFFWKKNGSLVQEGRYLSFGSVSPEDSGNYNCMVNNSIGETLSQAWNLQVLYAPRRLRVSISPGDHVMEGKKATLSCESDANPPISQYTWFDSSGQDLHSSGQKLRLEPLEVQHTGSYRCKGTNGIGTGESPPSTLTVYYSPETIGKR
The assay can be described thus: SPR binding affinity to mouse CD22. As to conditions: steady-state analysis. A digest of the protocol: (§1)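 Steady-state fits gave the affinities. Before capture on a streptavidin surface, biotinylated CD22 had native sialic acids stripped (SialoExo, 4 hours, 37° C.). Running buffer: 10 mM HEPES pH 7.5, 150 mM NaCl, 0.05% Tween-20, 1% DMSO, with DMSO solvent correction.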
In general terms: In SPR one partner is held on a chip, and binding of the other changes the refractive index at the surface.

In assay [2] the target is T2, human Siglec-2/CD22 protein (Homo sapiens, UniProt P20273).
T2 construct: purchased Acro Biosystems SI2-H82E3
T2 sequence (P20273 20-847): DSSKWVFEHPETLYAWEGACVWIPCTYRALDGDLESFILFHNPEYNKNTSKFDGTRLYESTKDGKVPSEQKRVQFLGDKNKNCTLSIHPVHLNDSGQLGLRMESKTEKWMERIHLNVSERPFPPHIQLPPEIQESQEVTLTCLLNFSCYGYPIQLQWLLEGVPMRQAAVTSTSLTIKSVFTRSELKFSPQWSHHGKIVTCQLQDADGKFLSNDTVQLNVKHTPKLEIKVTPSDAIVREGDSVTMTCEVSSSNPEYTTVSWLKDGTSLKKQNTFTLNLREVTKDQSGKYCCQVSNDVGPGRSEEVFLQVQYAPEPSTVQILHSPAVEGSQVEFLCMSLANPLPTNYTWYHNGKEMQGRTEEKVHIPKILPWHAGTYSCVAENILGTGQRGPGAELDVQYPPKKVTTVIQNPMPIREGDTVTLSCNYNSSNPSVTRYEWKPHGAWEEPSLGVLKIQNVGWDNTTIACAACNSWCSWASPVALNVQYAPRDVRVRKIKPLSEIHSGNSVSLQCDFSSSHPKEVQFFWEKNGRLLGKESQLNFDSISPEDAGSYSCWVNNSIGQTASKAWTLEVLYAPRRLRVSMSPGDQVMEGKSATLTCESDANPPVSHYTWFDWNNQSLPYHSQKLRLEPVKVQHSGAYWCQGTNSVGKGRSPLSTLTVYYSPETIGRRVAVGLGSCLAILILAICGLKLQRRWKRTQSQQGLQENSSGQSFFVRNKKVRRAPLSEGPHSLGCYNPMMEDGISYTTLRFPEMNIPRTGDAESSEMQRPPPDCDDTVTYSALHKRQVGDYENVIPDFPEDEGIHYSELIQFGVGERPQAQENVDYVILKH
The assay can be described thus: SPR binding affinity to human CD22. Conditions: steady-state analysis. A digest of the protocol:
as §1

A further assay concerns the target cynomolgus Siglec-2/CD22 (Macaca fascicularis, UniProt A0A2K5WCZ6). The assay can be described thus: biochemical. It counts as binding. Conditions: SPR, steady-state analysis; read-out: Affinity cyno CD22. A digest of the protocol:
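Compound binding measured by steady-state SPR analysis, 120 s dissociation, in HEPES-NaCl-Tween buffer pH 7.5 containing 1% DMSO, DMSO solvent-corrected. Surface: cyno CD22, sialic acids first stripped by SialoExo for 4 h at 37° C., then amine-coupled onto CM5.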

Sequence of cynomolgus Siglec-2/CD22 (A0A2K5WCZ6 entry or part of it): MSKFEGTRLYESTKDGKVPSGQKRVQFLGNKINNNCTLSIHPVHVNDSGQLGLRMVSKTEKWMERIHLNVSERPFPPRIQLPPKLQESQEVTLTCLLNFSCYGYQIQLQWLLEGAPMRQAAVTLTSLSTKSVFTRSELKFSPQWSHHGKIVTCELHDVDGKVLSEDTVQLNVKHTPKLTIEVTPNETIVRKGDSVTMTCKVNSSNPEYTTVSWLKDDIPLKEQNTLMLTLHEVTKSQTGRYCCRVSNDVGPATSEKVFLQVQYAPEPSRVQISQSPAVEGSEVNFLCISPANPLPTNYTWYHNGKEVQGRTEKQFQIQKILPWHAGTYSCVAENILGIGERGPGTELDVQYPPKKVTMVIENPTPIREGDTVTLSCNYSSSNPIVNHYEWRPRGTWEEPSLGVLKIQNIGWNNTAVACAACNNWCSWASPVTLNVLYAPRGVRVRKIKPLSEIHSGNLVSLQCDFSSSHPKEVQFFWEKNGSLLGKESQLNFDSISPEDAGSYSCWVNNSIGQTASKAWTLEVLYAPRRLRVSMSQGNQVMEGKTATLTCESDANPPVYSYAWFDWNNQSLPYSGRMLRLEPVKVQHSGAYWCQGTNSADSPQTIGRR

Consider `C#CCCCCCCS[C@]1(C(=O)O)C[C@H](O)[C@@H](NC(=O)CO)[C@H]([C@H](O)[C@H](O)CNC(=O)Cc2cccc(O)c2)O1` [Compound 141, (2S,4S,5R,6R)-6-((1R,2R)-1,2-dihydroxy-3-(2-(3-hydroxyphenyl)acetamido)propyl)-4-hydroxy-5-(2-hydroxyacetamido)-2-(oct-7-yn-1-ylthio)tetrahydro-2H-pyran-2-carboxylic acid], for which the pKd in assay [1] was greater than 6.00; in assay [2] it was greater than 6.00; on cynomolgus Siglec-2/CD22 it was 5.00 to 6.00.
In the case of `C#CCCOc1ccc(CO[C@]2(C(=O)O)C[C@H](O)[C@@H](N)[C@H]([C@H](O)[C@H](O)CNC(=O)Cc3ccc(-c4ccc(O)cc4)cc3)O2)cc1` [Compound 55, (2R,4S,5R,6R)-5-amino-2-((4-(but-3-yn-1-yloxy)benzyl)oxy)-6-((1R,2R)-1,2-dihydroxy-3-(2-(4′-hydroxy-[1,1′-biphenyl]-4-yl)acetamido)propyl)-4-hydroxytetrahydro-2H-pyran-2-carboxylic acid], the pKd in assay [1] was greater than 6.00; in assay [2] it was 5.00 to 6.00; on cynomolgus Siglec-2/CD22 it was 5.00 to 6.00.
For the compound `C#CCCOc1ccc(CO[C@]2(C(=O)O)C[C@H](O)[C@@H](NC(=O)CO)[C@H]([C@H](O)[C@H](O)CNC(=O)Cc3ccc(N4CCC(NC(C)=O)CC4)cc3)O2)cc1` [Compound 137, (2R,4S,5R,6R)-6-((1R,2R)-3-(2-(4-(4-acetamidopiperidin-1-yl)phenyl)acetamido)-1,2-dihydroxypropyl)-2-((4-(but-3-yn-1-yloxy)benzyl)oxy)-4-hydroxy-5-(2-hydroxyacetamido)tetrahydro-2H-pyran-2-carboxylic acid], the pKd in assay [1] is less than 5.00; in assay [2] it was less than 5.00; at cynomolgus Siglec-2/CD22, 5.00 to 6.00.
For the compound `CC(=O)NCCOCCOCCOCCOCCNC(=O)CCOCCO[C@]1(C(=O)O)C[C@H](O)[C@@H](NC(=O)CO)[C@H]([C@H](O)[C@H](O)CNC(=O)Cc2ccc(Cl)cc2)O1` [Compound 239, (2R,4S,5R,6R)-6-((1R,2R)-3-(2-(4-chlorophenyl)acetamido)-1,2-dihydroxypropyl)-2-((2,19-dioxo-6,9,12,15,22-pentaoxa-3,18-diazatetracosan-24-yl)oxy)-4-hydroxy-5-(2-hydroxyacetamido) tetrahydro-2H-pyran-2-carboxylic acid], the pKd (in assay [1]; in assay [2]; at cynomolgus Siglec-2/CD22) was 5.00 to 6.00 each time.
With `C#CCNC(=O)c1ccc(CS[C@]2(C(=O)O)C[C@H](O)[C@@H](NC(=O)CO)[C@H]([C@H](O)[C@H](O)CNC(=O)Cc3ccc(Cl)cc3)O2)cc1` [Compound 187, (2S,4S,5R,6R)-6-((1R,2R)-3-(2-(4-chlorophenyl)acetamido)-1,2-dihydroxypropyl)-4-hydroxy-5-(2-hydroxyacetamido)-2-((4-(prop-2-yn-1-ylcarbamoyl)benzyl)thio)tetrahydro-2H-pyran-2-carboxylic acid], the pKd (in assay [1]; in assay [2]; on cynomolgus Siglec-2/CD22) was greater than 6.00 in each case.
Turning to `C#CCOCCCCCCO[C@]1(C(=O)O)C[C@H](O)[C@@H](NC(=O)C(=O)Nc2ccccc2)[C@H]([C@H](O)[C@H](O)CNC(=O)Cc2ccc(Cl)cc2)O1` [Compound 188, (2R,4S,5R,6R)-6-((1R,2R)-3-(2-(4-chlorophenyl)acetamido)-1,2-dihydroxypropyl)-4-hydroxy-5-(2-oxo-2-(phenylamino)acetamido)-2-((6-(prop-2-yn-1-yloxy)hexyl)oxy)tetrahydro-2H-pyran-2-carboxylic acid], the figures for the pKd (in assay [1]; in assay [2]; at cynomolgus Siglec-2/CD22) were 5.00 to 6.00, greater than 6.00 and greater than 6.00, respectively.
In the case of `C#CCOCCOCCO[C@]1(C(=O)O)C[C@H](O)[C@@H](NC(=O)CS)[C@H]([C@H](O)[C@H](O)CNC(=O)Cc2ccc(-c3ccc(O)cc3)cc2)O1` [Compound 69, (2R,4S,5R,6R)-6-((1R,2R)-1,2-dihydroxy-3-(2-(4′-hydroxy-[1,1′-biphenyl]-4-yl)acetamido)propyl)-4-hydroxy-5-(2-mercaptoacetamido)-2-(2-(2-(prop-2-yn-1-yloxy)ethoxy)ethoxy)tetrahydro-2H-pyran-2-carboxylic acid], the pKd was less than 5.00 in assay [1], 5.00 to 6.00 in assay [2] and less than 5.00 on cynomolgus Siglec-2/CD22.
With `C#CCCOc1ccc(CO[C@]2(C(=O)O)C[C@H](O)[C@@H](NC(=O)CO)[C@H]([C@H](O)[C@H](O)CNC(=O)Cc3ccc(NC(C)=O)cc3)O2)cc1` [Compound 168, (2R,4S,5R,6R)-6-((1R,2R)-3-(2-(4-acetamidophenyl)acetamido)-1,2-dihydroxypropyl)-2-((4-(but-3-yn-1-yloxy)benzyl)oxy)-4-hydroxy-5-(2-hydroxyacetamido)tetrahydro-2H-pyran-2-carboxylic acid], the pKd (in assay [1]; in assay [2]; at cynomolgus Siglec-2/CD22) was 5.00 to 6.00 throughout.
With `C#CCOCCOCCO[C@]1(C(=O)O)C[C@H](O)[C@@H](NC(=O)CO)[C@H]([C@H](O)[C@H](O)CNC(=O)CC)O1` [Compound 15, (2R,4S,5R,6R)-6-((1R,2R)-1,2-dihydroxy-3-propionamidopropyl)-4-hydroxy-5-(2-hydroxyacetamido)-2-(2-(2-(prop-2-yn-1-yloxy)ethoxy)ethoxy)tetrahydro-2H-pyran-2-carboxylic acid], the pKd (in assay [1]; in assay [2]; at cynomolgus Siglec-2/CD22) was less than 5.00 each time.
Take `C#CCOCCOCCO[C@]1(C(=O)O)C[C@H](O)[C@@H](NS(=O)(=O)NC)[C@H]([C@H](O)[C@H](O)CNC(=O)Cc2ccc(-c3ccc(O)cc3)cc2)O1` [Compound 225, (2R,4S,5R,6R)-6-((1R,2R)-1,2-dihydroxy-3-(2-(4′-hydroxy-[1,1′-biphenyl]-4-yl)acetamido)propyl)-4-hydroxy-5-((N-methylsulfamoyl)amino)-2-(2-(2-(prop-2-yn-1-yloxy)ethoxy)ethoxy)tetrahydro-2H-pyran-2-carboxylic acid]: the pKd (in assay [1]; in assay [2]; on cynomolgus Siglec-2/CD22) was less than 5.00 each time.
On to `CC(=O)NCCOCCOCCOCCOCCC(=O)NCCCCCCO[C@]1(C(=O)O)C[C@H](O)[C@@H](NC(=O)CO)[C@H]([C@H](O)[C@H](O)CNC(=O)Cc2ccc(C(F)F)cc2)O1` [Cpd. 256, (2R,4S,5R,6R)-6-((1R,2R)-3-(2-(4-(difluoromethyl)phenyl)acetamido)-1,2-dihydroxypropyl)-2-((2,18-dioxo-6,9,12,15-tetraoxa-3,19-diazapentacosan-25-yl)oxy)-4-hydroxy-5-(2-hydroxyacetamido) tetrahydro-2H-pyran-2-carboxylic acid], for which the pKd in assay [1] is 5.00 to 6.00; in assay [2], greater than 6.00; at cynomolgus Siglec-2/CD22, greater than 6.00.
Consider `CC(=O)NCCOCCOCCOCCOCCNc1c(NCCCCCCO[C@]2(C(=O)O)C[C@H](O)[C@@H](NC(=O)CO)[C@H]([C@H](O)[C@H](O)CNC(=O)Cc3ccc(Cl)cc3)O2)c(=O)c1=O` [Compound 240, (2R,4S,5R,6R)-6-((1R,2R)-3-(2-(4-chlorophenyl)acetamido)-1,2-dihydroxypropyl)-2-((6-((3,4-dioxo-2-((2-oxo-6,9,12,15-tetraoxa-3-azaheptadecan-17-yl)amino)cyclobut-1-en-1-yl)amino)hexyl)oxy)-4-hydroxy-5-(2-hydroxyacetamido) tetrahydro-2H-pyran-2-carboxylic acid], for which the pKd (in assay [1]; in assay [2]; at cynomolgus Siglec-2/CD22) was greater than 6.00 in each case.
